Legend:
Type in all cases: biochemical
HDAC8 = biological target: T1, HDAC8 (Homo sapiens, UniProt Q9BY41); experiment: Fluorescence-based HDAC enzyme assay, recombinant HDAC8; settings: recombinant human HDAC enzyme in vitro; read-out: IC50 (μM) HD8
T1 construct: HDAC6 and 8 were cloned as full length N-terminally His-tagged protein; His tag (N); made in house; host or cells: Sf-9 insect cells (baculovirus)
T1 sequence (Q9BY41 1-377): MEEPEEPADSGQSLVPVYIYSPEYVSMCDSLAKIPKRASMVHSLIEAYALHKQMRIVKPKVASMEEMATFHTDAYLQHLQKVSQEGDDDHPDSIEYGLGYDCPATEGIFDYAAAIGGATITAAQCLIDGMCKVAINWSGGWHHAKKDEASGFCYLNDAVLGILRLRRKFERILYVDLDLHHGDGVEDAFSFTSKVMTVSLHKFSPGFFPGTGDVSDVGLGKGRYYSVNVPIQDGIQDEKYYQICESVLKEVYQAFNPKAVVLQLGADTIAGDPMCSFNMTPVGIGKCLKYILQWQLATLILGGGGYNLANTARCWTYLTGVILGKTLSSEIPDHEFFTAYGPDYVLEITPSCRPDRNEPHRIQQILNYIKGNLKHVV
From the text: (§1) cDNAs of human HDAC1-8 and 11 were generated by RT-PCR reactions using primers complementary to the 5′ and 3′ coding sequence of human HDAC gene sequences in GenBank. cDNAs corresponding to the full length human HDAC1, 2, 3 and 11 were cloned into pBlueBac4.5 vector (Invitrogen). The constructs were used to generate recombinant baculoviruses using the Bac-N-Blue™ DNA according to the manufacturer's instructions (Invitrogen). The recombinant HDAC1, 2, 3, 11 proteins produced harbor a FLAG tag at their C-termini. cDNAs encoding truncated versions of HDAC4, 5 and 7 encompassing their deacetylase domains were cloned into pDEST10 as an N-terminal hexahistidine fusion protein and recombinant baculoviruses were generated using the Bac-to-Bac™ Baculovirus expression system (Invitrogen). HDAC6 and 8 were cloned as full length N-terminally His-tagged protein. All HDAC proteins were expressed in insect Sf-9 cells (Spodoptera frugiperdai) upon infection with recombinant baculovirus. HDAC1 enzyme was purified from the Q-sepharose FF column (Amersham Pharmacia Biotech, Baie d'Urfe QC, Canada) followed by an anti-FLAG immunoaffinity column (Sigma). HDAC2, 3 and 11 were purified using Flag-antibody immunoaffinity purification. HDAC4, 5, 6, 7 and 8 were purified using either Ni-NTA resin (QIAGEN Mississauga ON, Canada) or His-Select resin (Sigma) with step washes and elution with different concentrations of imidazole in Buffer containing 25 mM Tris (or NaPO4) pH 8.0, 10% glycerol and 150 mM or 500 mM NaCl.
(§2) Recombinant HDAC enzymes were incubated with diluted compounds in assay buffer (25 mM Hepes, pH 8.0, 137 mM NaCl, 1 mM MgCl2 and 2.7 mM KCl) for 10 minutes at ambient temperatures in black 96-well plate. Boc-Lys(Ac)-AMC (for HDAC1, 2, 3, 6, and 8 enzymes), which was purchased from Bachem Biosciences Inc., (King of Prussia, Philadelphia) were added into enzyme-compound mixture and incubated at 37° C. For HDAC4, 5, 7 assays, Boc-Lys(TFA)-AMC, which was synthesized in house, was used as substrate and 0.1% BSA was added to the buffer. […] Reaction time was predetermined to ensure that reaction was linear for the incubation time. Reaction was stopped by adding a freshly prepared trypsin (1 mg/ml final concentration) with 1 μM TSA (Biomol) in assay buffer. After 30 minutes, fluorescence was measured using a fluorometer (SPECTRAMAX GeminiXS, Molecular Devices, Sunnylvale, Calif.). The 50% inhibitory concentrations (IC50) for inhibitors were determined by analyzing dose-response inhibition curves.

HDAC4 = biological target: T2, HDAC4 (Homo sapiens, UniProt P56524); experiment: Fluorescence-based HDAC enzyme assay, recombinant HDAC4; settings: recombinant human HDAC enzyme in vitro; read-out: IC50 (μM) HD4
T2 construct: cDNAs encoding truncated versions of HDAC4, 5 and 7 encompassing their deacetylase domains; hexahistidine (N); made in house; host or cells: Sf-9 insect cells (baculovirus)
From the text: as §1, §2

HDAC6 = biological target: T3, HDAC6 (Homo sapiens, UniProt Q9UBN7); experiment: Fluorescence-based HDAC enzyme assay, recombinant HDAC6; settings: recombinant human HDAC enzyme in vitro; read-out: IC50 (μM) HD6
T3 construct: HDAC6 and 8 were cloned as full length N-terminally His-tagged protein; His tag (N); made in house; host or cells: Sf-9 insect cells (baculovirus)
T3 sequence (Q9UBN7 1-1215): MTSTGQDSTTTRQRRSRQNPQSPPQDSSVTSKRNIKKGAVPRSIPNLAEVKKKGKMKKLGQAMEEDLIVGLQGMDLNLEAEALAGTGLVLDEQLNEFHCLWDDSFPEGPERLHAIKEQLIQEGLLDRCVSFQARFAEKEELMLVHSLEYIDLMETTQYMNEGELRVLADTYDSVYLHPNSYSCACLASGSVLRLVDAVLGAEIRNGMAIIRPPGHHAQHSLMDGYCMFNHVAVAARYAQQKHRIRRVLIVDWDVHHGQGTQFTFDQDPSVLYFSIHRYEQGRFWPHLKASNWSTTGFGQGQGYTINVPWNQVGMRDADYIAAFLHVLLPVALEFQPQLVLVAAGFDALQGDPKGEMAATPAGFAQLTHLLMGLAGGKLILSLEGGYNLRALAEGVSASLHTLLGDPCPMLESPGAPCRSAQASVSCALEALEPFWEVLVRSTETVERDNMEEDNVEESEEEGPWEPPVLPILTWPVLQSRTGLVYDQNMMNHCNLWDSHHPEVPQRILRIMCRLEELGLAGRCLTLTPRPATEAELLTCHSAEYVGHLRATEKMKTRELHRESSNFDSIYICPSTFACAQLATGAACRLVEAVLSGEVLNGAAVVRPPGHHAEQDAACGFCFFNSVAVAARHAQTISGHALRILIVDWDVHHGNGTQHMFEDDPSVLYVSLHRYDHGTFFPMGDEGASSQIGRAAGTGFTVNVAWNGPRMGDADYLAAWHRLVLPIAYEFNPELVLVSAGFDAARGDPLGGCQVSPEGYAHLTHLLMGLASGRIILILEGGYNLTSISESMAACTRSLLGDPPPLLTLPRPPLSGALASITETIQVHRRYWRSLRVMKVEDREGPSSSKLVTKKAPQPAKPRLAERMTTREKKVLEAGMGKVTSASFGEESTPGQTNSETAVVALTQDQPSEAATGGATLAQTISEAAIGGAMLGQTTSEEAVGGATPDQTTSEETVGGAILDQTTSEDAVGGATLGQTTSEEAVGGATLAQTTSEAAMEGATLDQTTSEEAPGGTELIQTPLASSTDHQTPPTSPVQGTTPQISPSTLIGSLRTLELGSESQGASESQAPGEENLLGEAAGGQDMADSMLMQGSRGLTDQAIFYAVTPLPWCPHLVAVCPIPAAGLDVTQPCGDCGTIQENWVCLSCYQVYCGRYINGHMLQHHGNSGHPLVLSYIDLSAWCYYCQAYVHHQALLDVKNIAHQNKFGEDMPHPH
From the text: as §1, §2

T2 sequence (P56524 655-1084 limits assumed): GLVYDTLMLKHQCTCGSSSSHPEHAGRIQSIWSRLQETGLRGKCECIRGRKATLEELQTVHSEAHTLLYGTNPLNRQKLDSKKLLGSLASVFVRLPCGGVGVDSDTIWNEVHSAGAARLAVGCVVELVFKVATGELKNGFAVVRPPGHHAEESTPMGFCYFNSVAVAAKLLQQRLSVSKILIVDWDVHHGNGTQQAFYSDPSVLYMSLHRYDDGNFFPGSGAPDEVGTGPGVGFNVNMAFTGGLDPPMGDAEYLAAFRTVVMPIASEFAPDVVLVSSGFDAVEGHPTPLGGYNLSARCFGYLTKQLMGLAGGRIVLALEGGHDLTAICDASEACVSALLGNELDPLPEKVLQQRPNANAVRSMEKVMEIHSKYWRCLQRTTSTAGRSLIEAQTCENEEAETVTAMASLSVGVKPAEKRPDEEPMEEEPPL

Nc1ccccc1NC(=O)c1ccc(N2CC[C@H](Nc3cccnc3)C2)cc1 [Compound B]
IC50 (HDAC8): 1.63 µM | IC50 (HDAC4): > 10 µM | IC50 (HDAC6): > 10 µM

Nc1ccc(-c2ccccc2)cc1NC(=O)c1ccc(N2CC[C@H](N)C2)cc1 [Compound D]
IC50 (HDAC8): > 10 µM | IC50 (HDAC4): > 10 µM | IC50 (HDAC6): > 10 µM

Nc1ccc(-c2ccccc2)cc1NC(=O)c1ccc(N2CCC(N)CC2)cc1 [Compound E]
IC50 (HDAC8): > 10 µM | IC50 (HDAC4): > 10 µM | IC50 (HDAC6): > 10 µM

CN1CCN(c2ccc(C(=O)Nc3cc(-c4ccccn4)ccc3N)cc2)CC1 [Compound F]
IC50 (HDAC8): > 10 µM | IC50 (HDAC4): > 10 µM | IC50 (HDAC6): > 10 µM

CN1CCN(c2ccc(C(=O)Nc3cc(-c4ccncc4)ccc3N)cc2)CC1 [Compound G]
IC50 (HDAC8): > 10 µM | IC50 (HDAC4): > 10 µM | IC50 (HDAC6): > 10 µM

CC(C)N1CCN(c2ccc(C(=O)Nc3cc(-c4ccncc4)ccc3N)cc2)CC1 [Compound H]
IC50 (HDAC8): > 10 µM | IC50 (HDAC4): > 10 µM | IC50 (HDAC6): > 10 µM

— patent US20090124631A1, “Combination Therapy” (priority 2007, published 2009)
